According to patent US20250144067A1, “PERSONALIZED STARVATION THERAPY FOR CANCER” (Faeth Therapeutics, Inc., priority 2021, published 2025):
Where a name gives a salt, the structure may show the parent alone. Read-outs that look alike come from different tables or passages of the source.

Tests used:
[1] = tested on: NCI-H292 lung cancer cells; assay: FDA drug screening, complete media vs cholesterol-free media without statin (TABLE 1); assay type: cell-based, human
[2] = tested on: NCI-H292 lung cancer cells; assay: FDA drug screening, complete media vs cholesterol-free media with simvastatin (TABLE 2); assay type: cell-based, human
[3] = NCI-H292 cells, cholesterol-free media without statin
[4] = complete vs cholesterol-free media, greater than 0 enhanced anti-cancer activity, about 0 neutral, below 0 antagonists
[5] = NCI-H292 cells, FDA library drug in cholesterol-free media with simvastatin 0.04 μM
[6] = NCI-H292 cells, FDA library drug in complete media
[7] = complete media vs cholesterol-free media + simvastatin (0.04 μM), >0 enhanced anti-cancer activity, about 0 neutral, <0 antagonist
[8] = Complete minus Cholesterol-free, >0 enhanced anti-cancer activity, about 0 neutral, <0 antagonist
[9] = NCI-H292 cells, cholesterol-free media with simvastatin 0.04 μM, FDA drug library screen (TABLE 2)
[10] = NCI-H292 cells, complete media, FDA drug library screen (TABLE 2)
[11] = complete media minus cholesterol-free media + simvastatin (0.04 μM), >0 enhanced anti-cancer activity, about 0 neutral, <0 antagonist
[12] = NCI-H292 cells in cholesterol-free media without statin
[13] = NCI-H292 cells in complete media
[14] = Complete minus Cholesterol-free, greater than 0 enhanced anti-cancer activity, about 0 neutral, below 0 antagonists
[15] = NCI-H292 cells, FDA drug library screen, cholesterol-free media with simvastatin 0.04 μM
[16] = NCI-H292 cells, FDA drug library screen, complete media
[17] = complete media minus cholesterol-free media + simvastatin, >0 enhanced anti-cancer activity, about 0 neutral, <0 antagonist
[18] = NCI-H292 cells, cholesterol-free media without statin, FDA drug library screen
[19] = NCI-H292 cells, complete media, FDA drug library screen
[20] = complete vs cholesterol-free media, >0 enhanced anti-cancer activity, about 0 neutral, <0 antagonist

Molecule: Cc1c(C)c2c(c(C)c1O)CC[C@@](C)(CCC[C@H](C)CCC[C@H](C)CCCC(C)C)O2 [α-Vitamin E]
- Cholesterol-free [1, 3]: 1.5
- Complete ([1]; NCI-H292 cells, complete media): 1.082
- Difference [1, 4]: −0.42
- Cholesterol-free media + simvastatin (0.04 μM) [2, 5]: 1.493
- Complete Media [2, 6]: 0.9076
- Difference [2, 7]: −0.59

Molecule: CC#CCn1c(N2CCC[C@@H](N)C2)nc2c1c(=O)n(Cc1nc(C)c3ccccc3n1)c(=O)n2C [Linagliptin]
- Difference [1, 8]: −0.23
- Cholesterol-free [1, 3]: 1.072
- Complete ([1]; NCI-H292 cells, complete media): 0.8404
- Cholesterol-free media + simvastatin (0.04 μM) [2, 9]: 1.095
- Complete Media [2, 10]: 1.067
- Difference [2, 11]: −0.03

Molecule: OC[C@H]1NC[C@H](O)[C@@H](O)[C@H]1O [Migalastat (hydrochloride)]
- Difference ([1]; Complete minus Cholesterol-free, […]): −0.53
- Cholesterol-free [1, 12]: 1.45
- Complete [1, 13]: 0.9162
- Cholesterol-free media + simvastatin (0.04 μM) ([2]; NCI-H292 cells, cholesterol-free media with simvastatin 0.04 μM, […]): 0.7275
- Complete Media ([2]; NCI-H292 cells, complete media, […]): 0.7465
- Difference ([2]; complete media minus cholesterol-free media + simvastatin, […]): 0.02

Molecule: CCCCS(=O)(=O)N[C@@H](Cc1ccc(OCCCCC2CCNCC2)cc1)C(=O)O [Tirofiban (hydrochloride monohydrate)]
- Difference [1, 14]: −0.96
- Cholesterol-free [1, 12]: 1.842
- Complete [1, 13]: 0.8788
- Cholesterol-free media + simvastatin (0.04 μM) [2, 15]: 1.824
- Complete Media [2, 16]: 1.693
- Difference [2, 7]: −0.13

Molecule: C[C@]12C=CC(=O)C=C1CC[C@@H]1[C@@H]2C(=O)C[C@@]2(C)[C@H]1CC[C@]2(O)C(=O)CO [Prednisone]
- Difference [1, 14]: −0.52
- Cholesterol-free [1, 12]: 1.522
- Complete [1, 13]: 1.002
- Cholesterol-free media + simvastatin (0.04 μM) ([2]; NCI-H292 cells, cholesterol-free media with simvastatin 0.04 μM, cell growth value in FDA drug screen): 0.9598
- Complete Media ([2]; NCI-H292 cells, complete media, cell growth value in FDA drug screen): 1.028
- Difference [2, 17]: 0.07

Molecule: Nc1nc(NC2CC2)c2ncn([C@H]3C=C[C@@H](CO)C3)c2n1.Nc1nc(NC2CC2)c2ncn([C@H]3C=C[C@@H](CO)C3)c2n1.O=S(=O)(O)O [Abacavir (sulfate)]
- Difference [1, 8]: 0.06
- Cholesterol-free [1, 18]: 0.4233
- Complete [1, 19]: 0.4872
- Cholesterol-free media + simvastatin (0.04 μM) [2, 15]: 0.2456
- Complete Media [2, 16]: 0.4029
- Difference [2, 17]: 0.16

Molecule: Cc1nc(Nc2ccc(F)cc2)nc(N2CCc3ccccc3C2C)c1C (centres unmarked) [Revaprazan (hydrochloride)]
- Cholesterol-free [1, 18]: 1.192
- Complete [1, 19]: 1.344
- Difference [1, 20]: 0.15
- Cholesterol-free media + simvastatin (0.04 μM) [2, 9]: 1.005
- Complete Media [2, 10]: 0.9357
- Difference [2, 11]: −0.07

Molecule: COc1cc2c(cc1OC)C1CC(=O)C(CC(C)C)CN1CC2 (centres unmarked) [Tetrabenazine]
- Cholesterol-free [1, 3]: 1.615
- Complete ([1]; NCI-H292 cells, complete media): 1.162
- Difference [1, 4]: −0.45
- Cholesterol-free media + simvastatin (0.04 μM) ([2]; NCI-H292 cells, drug in cholesterol-free media with simvastatin 0.04 μM): 1.249
- Complete Media ([2]; NCI-H292 cells, drug in complete media): 1.01
- Difference [2, 7]: −0.24

Molecule: Bretylium (tosylate)
- Cholesterol-free [1, 18]: 0.5154
- Complete [1, 19]: 0.751
- Difference [1, 20]: 0.24
- Complete Media [2, 6]: 0.8163
- Difference [2, 7]: −0.40

Molecule: COc1cccc2c1C(=O)c1c(O)c3c(c(O)c1C2=O)C[C@@](O)(C(=O)CO)C[C@@H]3O[C@H]1C[C@H](N)[C@@H](O)[C@H](C)O1 [Epirubicin (hydrochloride)]
- Difference [1, 8]: −0.01
- Cholesterol-free [1, 18]: −0.006463
- Complete [1, 19]: −0.01887
- Cholesterol-free media + simvastatin (0.04 μM) [2, 15]: 0.1295
- Complete Media [2, 16]: −0.004785
- Difference [2, 7]: −0.13

Molecule: CC(C)CN(C[C@@H](O)[C@H](Cc1ccccc1)NC(=O)O[C@H]1CO[C@H]2OCC[C@H]21)S(=O)(=O)c1ccc(N)cc1 [Darunavir]
- Cholesterol-free [1]: 1.103
- Complete [1]: 0.8067
- Difference [1]: −0.30
- Cholesterol-free media + simvastatin (0.04 μM) [2]: 0.9174
- Complete Media [2]: 0.7724
- Difference [2]: −0.14

Molecule: CN1C(C(=O)Nc2ccccn2)=C(O)c2ccccc2S1(=O)=O [Piroxicam]
- Difference [1, 14]: −0.71
- Cholesterol-free [1, 12]: 1.552
- Complete [1, 13]: 0.8427
- Cholesterol-free media + simvastatin (0.04 μM) [2, 5]: 1.433
- Complete Media [2, 6]: 1.008
- Difference [2, 7]: −0.42
